Test results published in patent publication US12264159B2, “Functionalized heterocycles as antiviral agents” (Enanta Pharmaceuticals, Inc., priority 2018, dated 2025).

Tests used:
[1] = Compound induced cellular toxicity in HepG2 cells, ATPlite 1Step; assay type: cell-based; settings: human, three days exposure, 50% reduction of total ATP vs no drug controls
Protocol: At day 3, post seeding cells are treated with ATPlite 1Step according to the manufacturer's instructions.

HBV in 2.2.15 cells = experiment: 2.2.15 cells: viral product in cell lysates quantified via quantitative real time PCR; assay type: cell-based, hepatitis B virus (HBV); settings: Hepatitis B virus, 120 h, day 5 post treatment, 50% reduction of viral product vs no drug controls, readout (qPCR, HBsAg or HBeAg) not specified for the column
Outline: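 2.2.15 cells (35,000/well, DMEM/F12, 10% FBS, G418) were treated with 5-fold serial compound dilutions, 0.5% DMSO final. After 5 days, lysates were quantified by qPCR, or supernatant HBsAg/HBeAg by ELISA; EC50 is the concentration giving 50% reduction versus no-drug controls.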

Compound | CC50 at 3 days [1] [µM] | EC50 (HBV in 2.2.15 cells) [µM]
CC(C)(C)[C@@H]1Cn2ncc(-c3ccco3)c2-c2cc(=O)c(C(=O)O)cn21 [Example 108, (R)-6-(tert-butyl)-1-(furan-2-yl)-10-oxo-5,6-dihydro-10H-pyrazolo[1,5-a]pyrido[2,1-c]pyrazine-9-carboxylic acid] | 10 to 25 | < 0.1
CC(C)(C)[C@@H]1Cn2nc(-c3ccccc3OC(F)(F)F)cc2-c2cc(=O)c(C(=O)O)cn21 [Example 24, (R)-6-(tert-butyl)-10-oxo-2-(2-(trifluoromethoxy)phenyl)-5,6-dihydro-10H-pyrazolo[1,5-a]pyrido[2,2-c]pyrazine-12-carboxylic acid] | > 25 | < 0.1
Cc1cccc(-c2cnn3c2-c2cc(=O)c(C(=O)O)cn2[C@H](C(C)(C)C)C3)c1 [Example 125, (R)-6-(tert-butyl)-10-oxo-1-(m-tolyl)-5,6-dihydro-10H-pyrazolo[1,5-a]pyrido[2,1-c]pyrazine-9-carboxylic acid] | > 25 | < 0.1
CC(C)c1ccccc1-c1cc2n(n1)C[C@@H](C(C)(C)C)n1cc(C(=O)O)c(=O)cc1-2 [Example 83, (R)-6-(tert-butyl)-2-(2-isopropylphenyl)-10-oxo-5,6-dihydro-10H-pyrazolo[1,5-a]pyrido[2,2-c]pyrazine-12-carboxylic acid] | > 25 | 0.2 to 1
CC(C)(C)[C@@H]1Cn2nc(C3CC3)c(-c3cncs3)c2-c2cc(=O)c(C(=O)O)cn21 [Example 163, (R)-6-(tert-butyl)-2-cyclopropyl-10-oxo-1-(thiazol-5-yl)-5,6-dihydro-10H-pyrazolo[1,5-a]pyrido[2,1-c]pyrazine-9-carboxylic acid] | > 25 | < 0.1
CC(C)(C)[C@@H]1Cn2nc(-c3ccccc3F)cc2-c2cc(=O)c(C(=O)O)cn21 [Example 3, (R)-6-(tert-butyl)-2-(2-fluorophenyl)-10-oxo-5,6-dihydro-10H-pyrazolo[1,5-a]pyrido[2,2-c]pyrazine-12-carboxylic acid] | > 25 | < 0.1
CC(C)(C)[C@@H]1Cn2nc(C3CC3)c(-c3cccc(F)c3)c2-c2cc(=O)c(C(=O)O)cn21 [Example 147, (R)-6-(tert-butyl)-2-cyclopropyl-1-(3-fluorophenyl)-10-oxo-5,6-dihydro-10H-pyrazolo[1,5-a]pyrido[2,1-c]pyrazine-9-carboxylic acid] | > 25 | < 0.1
CC(C)(C)[C@@H]1Cn2nc(-c3cccc4c3OCC4)cc2-c2cc(=O)c(C(=O)O)cn21 [Example 59, (R)-6-(tert-butyl)-2-(2,3-dihydrobenzofuran-7-yl)-10-oxo-5,6-dihydro-10H-pyrazolo[1,5-a]pyrido[2,2-c]pyrazine-12-carboxylic acid] | > 25 | < 0.1
CC(C)(C)[C@@H]1Cn2nc(-c3ccc(F)cc3)c(-c3ccccc3)c2-c2cc(=O)c(C(=O)O)cn21 [Example 166, (R)-6-(tert-butyl)-2-(4-fluorophenyl)-10-oxo-1-phenyl-5,6-dihydro-10H-pyrazolo[1,5-a]pyrido[2,1-c]pyrazine-9-carboxylic acid] | > 25 | < 0.1
CC(C)(C)[C@@H]1Cn2nc(-c3c(F)cccc3Cl)cc2-c2cc(=O)c(C(=O)O)cn21 [Example 65, (R)-6-(tert-butyl)-2-(2-chloro-6-fluorophenyl)-10-oxo-5,6-dihydro-10H-pyrazolo[1,5-a]pyrido[2,2-c]pyrazine-12-carboxylic acid] | > 25 | < 0.1
CC(C)(C)[C@@H]1Cn2nc(C3CC3)c(-c3ccc(F)c(F)c3)c2-c2cc(=O)c(C(=O)O)cn21 [Example 151, (R)-6-(tert-butyl)-2-cyclopropyl-1-(3,4-difluorophenyl)-10-oxo-5,6-dihydro-10H-pyrazolo[1,5-a]pyrido[2,1-c]pyrazine-9-carboxylic acid] | > 25 | < 0.1
CCOc1c(F)cccc1-c1cc2n(n1)C[C@@H](C(C)(C)C)n1cc(C(=O)O)c(=O)cc1-2 [Example 71, (R)-6-(tert-butyl)-2-(2-ethoxy-3-fluorophenyl)-10-oxo-5,6-dihydro-10H-pyrazolo[1,5-a]pyrido[2,2-c]pyrazine-12-carboxylic acid] | > 25 | < 0.1
CC(C)(C)[C@@H]1Cn2ncc(-c3cccc4c3OC(F)(F)O4)c2-c2cc(=O)c(C(=O)O)cn21 [Example 111, (R)-6-(tert-butyl)-1-(2,2-difluorobenzo[d][1,3]dioxol-4-yl)-10-oxo-5,6-dihydro-10H-pyrazolo[1,5-a]pyrido[2,1-c]pyrazine-9-carboxylic acid] | > 25 | < 0.1
CC(C)(C)[C@@H]1Cn2nc(C3CC3)c(-c3ccccc3)c2-c2cc(=O)c(-c3ncn[nH]3)cn21 [Example 195, (R)-6-(tert-butyl)-2-cyclopropyl-1-phenyl-9-(1H-1,2,4-triazol-5-yl)-5,6-dihydro-10H-pyrazolo[1,5-a]pyrido[2,1-c]pyrazin-10-one] | > 25 | < 0.1
CC(C)(C)[C@@H]1Cn2nc(-c3ccc(F)cc3)c(-c3ccc(F)cc3)c2-c2cc(=O)c(C(=O)O)cn21 [Example 91, (R)-6-(tert-butyl)-1,2-bis(4-fluorophenyl)-10-oxo-5,6-dihydro-10H-pyrazolo[1,5-a]pyrido[2,1-c]pyrazine-9-carboxylic acid] | > 25 | < 0.1
CC(C)(C)[C@@H]1Cn2nc(-c3cccc4scnc34)cc2-c2cc(=O)c(C(=O)O)cn21 [Example 31, (R)-2-(benzo[d]thiazol-4-yl)-6-(tert-butyl)-10-oxo-5,6-dihydro-10H-pyrazolo[1,5-a]pyrido[2,2-c]pyrazine-12-carboxylic acid] | > 25 | < 0.1
CCOc1cccc(F)c1-c1cc2n(n1)C[C@@H](C(C)(C)C)n1cc(C(=O)O)c(=O)cc1-2 [Example 74, (R)-6-(tert-butyl)-2-(2-ethoxy-6-fluorophenyl)-10-oxo-5,6-dihydro-10H-pyrazolo[1,5-a]pyrido[2,2-c]pyrazine-12-carboxylic acid] | > 25 | < 0.1
CC(C)(C)[C@@H]1Cn2nc(-c3cccc(F)c3)c(-c3cccc(F)c3)c2-c2cc(=O)c(-c3ncn[nH]3)cn21 [Example 193, (R)-6-(tert-butyl)-1,2-bis(3-fluorophenyl)-9-(1H-1,2,4-triazol-5-yl)-5,6-dihydro-10H-pyrazolo[1,5-a]pyrido[2,1-c]pyrazin-10-one] | > 25 | < 0.1
CC(C)(C)[C@@H]1Cn2nc(-c3ccc(F)cc3)c(F)c2-c2cc(=O)c(C(=O)O)cn21 [Example 93, (R)-6-(tert-butyl)-1-fluoro-2-(4-fluorophenyl)-10-oxo-5,6-dihydro-10H-pyrazolo[1,5-a]pyrido[2,1-c]pyrazine-9-carboxylic acid] | > 25 | < 0.1
Cc1ccc(-c2c(C3CC3)nn3c2-c2cc(=O)c(C(=O)O)cn2[C@H](C(C)(C)C)C3)cc1 [Example 154, (R)-6-(tert-butyl)-2-cyclopropyl-10-oxo-1-(p-tolyl)-5,6-dihydro-10H-pyrazolo[1,5-a]pyrido[2,1-c]pyrazine-9-carboxylic acid] | > 25 | < 0.1
